Data on 4 compounds can be found in patent US4656173A, “Antipsychotic benzisothiazole S-oxide compound” (Bristol-Myers Company, priority 1985, dated 1987).

The nature of series [1]: Antipsychotic activity testing of dioxide (II). The settings on record: in vivo.
The target of series [2] is Dopaminergic (D2) receptor binding site (Homo sapiens, UniProt P14416). The series is described as follows: In vitro receptor binding, dopaminergic (D2). Conditions: predictive correlate: antipsychotic efficacy, EPS liability.
The target in series [3] is Serotoninergic (S2) receptor binding site (Homo sapiens, UniProt P28223). The series is described as follows: In vitro receptor binding, serotoninergic (S2). The settings on record: predictive correlate: lack of EPS (?).
Series [4] addresses α-adrenergic (α1) receptor binding site. The series is described as follows: In vitro receptor binding, α-adrenergic (α1). The settings on record: predictive correlate: postural hypotension, palpitations.
The target of series [5] is Muscarinic receptor binding site. In words: In vitro receptor binding, muscarinic. Conditions: predictive correlate: dry mouth, constipation.
Series [6] can be described thus: Metabolic interconversion in rats. It counts as in vivo. The text has this:
(§1) Currently, there is insufficient information available to confirm that compound I is a metabolite of BMY 13859. […] Such interconversions have been previously reported, as for sulindac, supra.

Series [7] in a line: Metabolic interconversion in humans. The class given is in vivo. Conditions: high pressure liquid chromatography.
From the text: as §1

Series [8] is described as follows: Blood plasma concentration after dosing of rats. The class given is in vivo. Conditions: 30 minutes after dosing. An excerpt: In this regard, compound I represents an antipsychotic agent giving an improved neuropharmacological profile compared with BMY 13859.
The subject of series [9] is avoidance response to electrical shock in trained fasted rats. In words: Conditioned Avoidance Response (CAR). The class given is in vivo. An excerpt: 1. Conditioned Avoidance Response (CAR)--measure of a drug's tranquilizing activity as determined by its attenuation of avoidance response to electrical shock in trained fasted rats. cf: Albert, Pharmacologist, 4, 152 (1962); Wu, et al, J. Med. Chem., 12, 876-881 (1969).

Series [10] deals with apomorphine-induced stereotypy (dopaminergic activity in rats). In words: Inhibition of Apomorphine-Induced (APO) Stereotypy. The class given is in vivo. The text has this: 2. Inhibition of Apomorphine-Induced (APO) Stereotypy --an assessment of blockade of dopaminergic activity in rats as measured by attenuation of the behavioral syndrome caused by the dopamine agonist, apomorphine. cf: Janssen, et al., Arzneimittel. Forsch., 17, 841 (1966).

The nature of another series: Catalepsy (induction). Conditions: rat, in vivo; oral; rats; read-out: oral ED50 in inducing catalepsy. It counts as in vivo. An excerpt: (§2) 3. Catalepsy--drug-induced catalepsy in rats is predictive of potential extrapyramidal symptoms (EPS) in man. cf: Costall, et al, Psychopharmacologia, 34, 233-241 (1974); Berkson, J. Amer. Statist. Assoc., 48, 565-599 (1953).
Series [11] relates to drug-induced catalepsy in rats. In words: Catalepsy (induction). The class given is in vivo. The settings on record: oral.
From the text: as §2

The conditions of series [12]: Kwan and Heimlich, Internat. J. of Pharmaceutics, 6, (1980) 237-241, cited for biotransformations; cited from earlier work.

Chain of Serotoninergic (S2) receptor binding site (P28223 whole entry): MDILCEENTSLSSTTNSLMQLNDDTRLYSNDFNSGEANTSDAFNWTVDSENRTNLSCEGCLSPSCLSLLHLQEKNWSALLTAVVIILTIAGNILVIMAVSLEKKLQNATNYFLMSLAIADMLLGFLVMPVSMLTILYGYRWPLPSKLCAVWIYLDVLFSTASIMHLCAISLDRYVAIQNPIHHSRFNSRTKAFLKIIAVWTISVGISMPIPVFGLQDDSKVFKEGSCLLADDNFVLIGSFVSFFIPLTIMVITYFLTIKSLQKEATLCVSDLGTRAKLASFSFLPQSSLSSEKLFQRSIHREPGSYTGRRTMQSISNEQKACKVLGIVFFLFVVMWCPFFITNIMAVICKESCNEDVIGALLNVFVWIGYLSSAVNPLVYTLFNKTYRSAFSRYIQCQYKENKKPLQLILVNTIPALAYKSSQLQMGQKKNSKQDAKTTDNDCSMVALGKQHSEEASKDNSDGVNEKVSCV
Chain of Dopaminergic (D2) receptor binding site (P14416 whole entry): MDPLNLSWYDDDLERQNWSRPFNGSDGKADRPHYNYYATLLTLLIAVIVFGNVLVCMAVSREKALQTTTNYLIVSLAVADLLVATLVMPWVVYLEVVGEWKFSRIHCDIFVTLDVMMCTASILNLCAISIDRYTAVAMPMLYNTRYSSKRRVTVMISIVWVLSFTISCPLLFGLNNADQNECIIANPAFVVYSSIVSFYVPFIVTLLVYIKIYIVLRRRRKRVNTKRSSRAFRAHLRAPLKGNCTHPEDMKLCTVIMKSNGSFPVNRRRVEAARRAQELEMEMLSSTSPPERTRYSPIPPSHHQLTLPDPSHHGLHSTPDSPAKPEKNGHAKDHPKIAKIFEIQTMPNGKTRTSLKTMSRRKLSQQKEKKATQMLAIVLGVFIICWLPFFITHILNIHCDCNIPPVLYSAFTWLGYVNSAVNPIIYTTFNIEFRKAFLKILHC

With `O=C1CC2(CCCC2)CC(=O)N1CCCCN1CCN(C2=NS(=O)(=O)c3ccccc32)CC1` [II], in series [1], the antipsychotic activity entry was “devoid of antipsychotic activity”.

As for `O=C1CC2(CCCC2)CC(=O)N1CCCCN1CCN(c2nsc3ccccc23)CC1` [BMY 13859, reference compound], the IC50 in [2] is 10 nM; in series [3] it was 1 nM; in series [4] it was 50 nM; in series [5], more than 1000 nM. Besides, the “compound formed after administration of BMY 13859” value in series [6] (high pressure liquid chromatography) and in series [7] was “a compound which co-elutes (high pressure liquid chromatography) with compound I is formed” throughout. The “concentration of administered agent in blood plasma versus the other (interconverted) agent” value in [8] is reported as “several-fold higher in concentration”.

Take `O=C1CC2(CCCC2)CC(=O)N1CCCCN1CCN(c2n[s+]([O-])c3ccccc23)CC1` (stereo not shown) [Compound I, 8-[4-[4-(1-oxo-1,2-benzisothiazol-3-yl)-1-piperazinyl]butyl]-8-azaspiro[4.5]decane-7,9-dione]: the concentration for half-maximal inhibition (IC50) was more than 1000 nM in series [2], 300 nM in [3], 330 nM in [4] and more than 1000 nM in [5]. In addition, the “activity in the CAR test” value in series [9] was “potent activity”. In [10], the “activity in the APO stereotypy test” value was “potent activity”. For the same compound, in the series “Catalepsy (induction)”, the ED50 is more than 30 mg/kg. In addition, the “activity in inducing catalepsy” value in [11] is “inactive”. In [6], the “compound formed after administration of compound I” value is “authentic BMY 13859 is formed in rats”. The “concentration of administered agent in blood plasma versus the other (interconverted) agent” value in series [8] is “several-fold higher in concentration”.

`CC1=C(CC(=O)O)c2cc(F)ccc2C1=Cc1ccc([S+](C)[O-])cc1` (stereo not shown) [sulindac]: in series [12], the “pharmacological activity of sulindac” value is reported as “appears to reside only in the sulfide metabolite”.
